This passage reports AC50 results from ChEMBL document CHEMBL5291721, “A preclinical secondary pharmacology resource illuminates target-adverse drug reaction associations of marketed drugs” (Nat Commun, 2023).

The target of experiment [1] is T1, Alpha-1A adrenergic receptor (Homo sapiens, UniProt P35348).
T1 sequence (P35348 whole entry): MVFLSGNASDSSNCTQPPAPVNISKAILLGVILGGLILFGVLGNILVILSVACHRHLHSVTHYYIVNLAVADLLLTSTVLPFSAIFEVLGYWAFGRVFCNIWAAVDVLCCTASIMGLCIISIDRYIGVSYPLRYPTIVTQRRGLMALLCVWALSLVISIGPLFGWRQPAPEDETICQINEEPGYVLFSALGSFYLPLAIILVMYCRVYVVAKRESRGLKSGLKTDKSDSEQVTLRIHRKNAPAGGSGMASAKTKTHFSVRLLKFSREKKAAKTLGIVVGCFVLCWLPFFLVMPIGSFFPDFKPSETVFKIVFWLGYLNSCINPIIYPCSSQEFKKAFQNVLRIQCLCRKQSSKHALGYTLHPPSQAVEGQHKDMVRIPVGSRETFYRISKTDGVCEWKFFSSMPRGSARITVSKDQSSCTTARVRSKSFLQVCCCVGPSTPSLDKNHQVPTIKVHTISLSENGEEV

The target in experiment [2] is D(1A) dopamine receptor (Homo sapiens, UniProt P21728).
Chain of D(1A) dopamine receptor (P21728 whole entry): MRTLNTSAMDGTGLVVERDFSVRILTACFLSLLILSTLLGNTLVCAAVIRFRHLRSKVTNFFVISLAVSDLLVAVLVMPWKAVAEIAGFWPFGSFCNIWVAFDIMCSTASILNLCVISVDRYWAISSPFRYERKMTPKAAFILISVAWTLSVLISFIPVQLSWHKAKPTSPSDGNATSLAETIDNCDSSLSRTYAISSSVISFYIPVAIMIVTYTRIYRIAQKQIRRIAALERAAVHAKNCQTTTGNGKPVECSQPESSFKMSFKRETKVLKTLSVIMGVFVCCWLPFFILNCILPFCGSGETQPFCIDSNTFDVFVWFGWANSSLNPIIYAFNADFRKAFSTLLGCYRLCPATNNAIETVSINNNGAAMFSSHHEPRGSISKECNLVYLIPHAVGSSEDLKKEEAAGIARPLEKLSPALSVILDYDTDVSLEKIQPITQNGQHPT
Experiment [3] deals with T2, Oxysterols receptor LXR-beta (Homo sapiens, UniProt P55055).
T2 sequence (P55055 whole entry): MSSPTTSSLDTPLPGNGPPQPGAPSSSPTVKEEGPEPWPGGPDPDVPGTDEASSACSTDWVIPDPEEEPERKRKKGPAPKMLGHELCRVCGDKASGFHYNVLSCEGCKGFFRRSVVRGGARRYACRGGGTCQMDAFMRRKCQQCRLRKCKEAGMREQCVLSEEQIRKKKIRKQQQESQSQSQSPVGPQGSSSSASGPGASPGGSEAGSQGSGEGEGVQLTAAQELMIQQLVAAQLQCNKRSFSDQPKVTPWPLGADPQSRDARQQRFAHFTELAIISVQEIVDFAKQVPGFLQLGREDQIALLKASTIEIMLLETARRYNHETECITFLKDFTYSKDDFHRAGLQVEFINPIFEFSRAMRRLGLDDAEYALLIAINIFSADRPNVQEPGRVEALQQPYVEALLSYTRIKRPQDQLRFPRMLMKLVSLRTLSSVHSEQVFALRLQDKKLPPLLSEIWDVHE
The experiment is classed as functional.

Experiment [4] concerns the target T3, Oxysterols receptor LXR-alpha (Homo sapiens, UniProt Q13133).
T3 sequence (Q13133 whole entry): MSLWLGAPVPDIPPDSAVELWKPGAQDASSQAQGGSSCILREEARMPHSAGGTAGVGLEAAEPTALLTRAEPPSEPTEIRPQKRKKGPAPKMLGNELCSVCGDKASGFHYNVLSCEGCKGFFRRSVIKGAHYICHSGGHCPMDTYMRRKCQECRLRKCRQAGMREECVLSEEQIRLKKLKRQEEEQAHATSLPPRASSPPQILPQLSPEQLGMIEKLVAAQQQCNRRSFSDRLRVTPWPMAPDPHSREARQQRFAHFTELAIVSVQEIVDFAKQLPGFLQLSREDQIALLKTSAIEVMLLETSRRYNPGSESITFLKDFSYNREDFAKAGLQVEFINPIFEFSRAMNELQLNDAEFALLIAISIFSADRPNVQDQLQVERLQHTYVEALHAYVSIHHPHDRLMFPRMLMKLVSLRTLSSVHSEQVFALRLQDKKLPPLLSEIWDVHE
The experiment is classed as functional.

Experiment [5] deals with T3, Oxysterols receptor LXR-alpha. The experiment is classed as functional. This is another data set of the same source.
In experiment [6] the target is T4, Bile acid receptor (Homo sapiens, UniProt Q96RI1).
T4 sequence (Q96RI1 whole entry): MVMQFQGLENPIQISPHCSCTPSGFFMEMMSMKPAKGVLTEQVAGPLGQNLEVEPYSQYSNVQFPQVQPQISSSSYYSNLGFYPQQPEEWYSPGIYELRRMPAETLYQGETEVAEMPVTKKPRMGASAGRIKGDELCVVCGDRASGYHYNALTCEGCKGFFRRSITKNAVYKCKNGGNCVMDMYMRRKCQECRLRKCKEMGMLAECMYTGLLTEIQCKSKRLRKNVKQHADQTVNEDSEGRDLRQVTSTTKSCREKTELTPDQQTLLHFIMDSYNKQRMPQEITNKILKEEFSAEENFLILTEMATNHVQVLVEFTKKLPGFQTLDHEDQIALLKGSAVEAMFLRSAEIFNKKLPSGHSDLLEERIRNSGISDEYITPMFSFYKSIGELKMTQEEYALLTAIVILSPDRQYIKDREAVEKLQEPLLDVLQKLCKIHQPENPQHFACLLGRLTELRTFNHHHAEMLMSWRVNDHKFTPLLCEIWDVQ
The experiment is classed as functional.

Experiment [7] addresses T5, Androgen receptor (Rattus norvegicus, UniProt P15207).
T5 sequence (P15207 whole entry): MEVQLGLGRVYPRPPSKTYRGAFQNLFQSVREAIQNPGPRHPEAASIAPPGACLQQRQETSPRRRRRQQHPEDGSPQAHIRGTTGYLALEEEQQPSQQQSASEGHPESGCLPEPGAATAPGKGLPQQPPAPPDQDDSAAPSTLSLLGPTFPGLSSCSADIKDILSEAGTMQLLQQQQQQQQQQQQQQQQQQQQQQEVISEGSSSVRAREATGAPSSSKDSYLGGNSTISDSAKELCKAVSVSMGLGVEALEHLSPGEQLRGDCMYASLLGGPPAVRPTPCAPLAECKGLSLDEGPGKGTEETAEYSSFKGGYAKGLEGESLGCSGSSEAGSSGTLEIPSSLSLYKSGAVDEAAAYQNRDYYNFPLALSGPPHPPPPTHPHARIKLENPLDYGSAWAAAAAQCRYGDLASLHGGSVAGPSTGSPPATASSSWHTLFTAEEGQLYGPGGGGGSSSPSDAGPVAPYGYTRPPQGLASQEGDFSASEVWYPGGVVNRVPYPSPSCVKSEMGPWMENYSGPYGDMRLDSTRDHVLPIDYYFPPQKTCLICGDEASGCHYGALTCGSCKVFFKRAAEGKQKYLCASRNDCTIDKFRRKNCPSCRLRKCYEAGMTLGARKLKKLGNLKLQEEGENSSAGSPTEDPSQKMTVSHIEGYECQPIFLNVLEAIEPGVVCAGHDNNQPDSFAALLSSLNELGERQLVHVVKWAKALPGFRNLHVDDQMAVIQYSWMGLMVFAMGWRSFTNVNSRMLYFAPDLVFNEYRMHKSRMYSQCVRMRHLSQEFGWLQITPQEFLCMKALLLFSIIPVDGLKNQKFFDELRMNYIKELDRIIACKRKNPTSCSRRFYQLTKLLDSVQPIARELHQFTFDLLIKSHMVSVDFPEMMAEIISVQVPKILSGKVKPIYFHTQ

For experiment [8], the target named is 5-hydroxytryptamine receptor 5A (Homo sapiens, UniProt P47898).
Chain of 5-hydroxytryptamine receptor 5A (P47898 whole entry): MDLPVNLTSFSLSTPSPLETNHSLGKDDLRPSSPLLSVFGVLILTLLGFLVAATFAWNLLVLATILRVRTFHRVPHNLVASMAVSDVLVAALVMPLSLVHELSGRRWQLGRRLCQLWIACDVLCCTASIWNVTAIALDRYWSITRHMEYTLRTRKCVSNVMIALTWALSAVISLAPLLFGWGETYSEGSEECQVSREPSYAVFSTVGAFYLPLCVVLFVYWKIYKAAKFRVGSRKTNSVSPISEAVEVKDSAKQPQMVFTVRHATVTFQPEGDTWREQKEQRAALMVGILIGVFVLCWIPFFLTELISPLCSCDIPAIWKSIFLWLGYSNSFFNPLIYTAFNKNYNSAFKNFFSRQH
Experiment [9] has as its target Hydroxycarboxylic acid receptor 2 (Homo sapiens, UniProt Q8TDS4).

Some results are limits rather than exact numbers.
Further: assay procedure not described here.

Chain of Hydroxycarboxylic acid receptor 2 (Q8TDS4 whole entry): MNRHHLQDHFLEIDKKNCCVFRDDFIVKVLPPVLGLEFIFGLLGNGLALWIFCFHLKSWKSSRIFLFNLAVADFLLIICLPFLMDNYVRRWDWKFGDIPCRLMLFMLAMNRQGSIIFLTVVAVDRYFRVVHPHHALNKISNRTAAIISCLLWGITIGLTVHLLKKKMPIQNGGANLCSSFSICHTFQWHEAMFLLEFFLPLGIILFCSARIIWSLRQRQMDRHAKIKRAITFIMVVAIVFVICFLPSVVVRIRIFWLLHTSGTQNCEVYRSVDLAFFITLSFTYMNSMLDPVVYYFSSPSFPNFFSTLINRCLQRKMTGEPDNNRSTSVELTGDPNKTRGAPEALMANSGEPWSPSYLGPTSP

For the molecule `O=C(Nc1cccc2c(=O)cc(-c3nnn[nH]3)oc12)c1ccc(OCCCCc2ccccc2)cc1`, the AC50 in [1] is 13.3 µM; in experiment [2], 2.88 µM.
Take `CC(/C=C1\SC(=S)N(CC(=O)O)C1=O)=C\c1ccccc1`: the AC50 in experiment [3], in [4], in experiment [5] and in [6] was above 30 µM throughout.
`CC1(C)S[C@@H]2[C@H](NC(=O)[C@H](N)c3ccc(O)cc3)C(=O)N2[C@H]1C(=O)O` [AMOXICILLIN]: the AC50 was above 30 µM in [7]; above 10 µM in experiment [8]; above 30 µM in experiment [3]; above 30 µM in experiment [4]; 19 µM in experiment [5]; above 30 µM in [6].
With `O=C1CN2Cc3c(ccc(Cl)c3Cl)N=C2N1` [ANAGRELIDE], the AC50 in experiment [7] was above 30 µM.
On the same count and under the same terms, then `CCc1oc2ccccc2c1C(=O)c1cc(Br)c(O)c(Br)c1` [BENZBROMARONE], with above 10 µM; and `[H]/N=C(\N/C(=N/[H])NCCCCCCNC(=N)NC(=N)Nc1ccc(Cl)cc1)Nc1ccc(Cl)cc1` [CHLORHEXIDINE], with above 30 µM.
In turn, `Clc1cccc(Cl)c1N=C1NCCN1` [CLONIDINE] gave an AC50 in experiment [9] above 10 µM.
As for `COC(=O)[C@H](c1ccccc1Cl)N1CCc2sccc2C1` [CLOPIDOGREL], the AC50 in [8] is above 10 µM.
As for `CCC(=O)O[C@@H](O[P@](=O)(CCCCc1ccccc1)CC(=O)N1C[C@H](C2CCCCC2)C[C@H]1C(=O)O)C(C)C` [FOSINOPRIL], the figures for the concentration at half-maximal activity (AC50) in experiment [1] and in [2] were above 30 µM and 21.6 µM, respectively.
In experiment [8], `Cc1cnc(NC(=O)C2=C(O)c3ccccc3S(=O)(=O)N2C)s1` [MELOXICAM] yielded an AC50 above 10 µM.
On to `CN(C)c1cc(CNCC(C)(C)C)c(O)c2c1C[C@H]1C[C@H]3[C@H](N(C)C)C(O)=C(C(N)=O)C(=O)[C@@]3(O)C(O)=C1C2=O` [OMADACYCLINE], for which the AC50 in experiment [1] and in [2] was above 30 µM in each case.
Turning to `COc1ccnc(C[S+]([O-])c2nc3ccc(OC(F)F)cc3[nH]2)c1OC` (configuration not stated) [PANTOPRAZOLE], the AC50 in experiment [9] is above 10 µM.
As for `CNC(=O)c1cc(Oc2ccc(NC(=O)Nc3ccc(Cl)c(C(F)(F)F)c3)c(F)c2)ccn1` [REGORAFENIB], the AC50 in [1] was above 30 µM; in [2], 4.15 µM; in [3] it was above 30 µM; in experiment [4], above 30 µM; in experiment [5], above 30 µM; in [6] it was above 30 µM.
With `CCOc1cc(CC(=O)N[C@@H](CC(C)C)c2ccccc2N2CCCCC2)ccc1C(=O)O` [REPAGLINIDE], the half-maximal activity concentration (AC50) in [3], in [4], in experiment [5] and in experiment [6] was above 30 µM each time.
Molecule `CC(=O)S[C@@H]1CC2=CC(=O)CC[C@]2(C)[C@H]2CC[C@@]3(C)[C@@H](CC[C@@]34CCC(=O)O4)[C@H]12` [SPIRONOLACTONE] registered an AC50 in [9] above 10 µM.
Molecule `CCCCNc1ccc(C(=O)OCCN(C)C)cc1` [TETRACAINE] displayed an AC50 in [8] above 10 µM.
`CN1CCN(CCCN2c3ccccc3Sc3ccc(S(=O)(=O)N(C)C)cc32)CC1` [THIOPROPERAZINE]: the figures for the AC50 in experiment [1] and in experiment [2] were 0.003 µM and above 30 µM, respectively.

As a reminder, the AC50 is the concentration giving half of the maximal activity seen.
